Assay [1] has as its system LDH-2 (Ec. mundtii LDH-2). The note with it: read-out: LDH-2 D241N / pH 5.5, pH 5.5 (MES-NaOH), 3 mM FBP (activator).
Assay [2] has as its system LDH-2 (Ec. mundtii LDH-2). The note with it: read-out: LDH-2 D241N / pH 5.5; pH 5.5 (MES-NaOH), 1.5 mM NADH, 20 mM pyruvate; allosteric activator.

Like-named read-outs stand apart in the source and are kept apart here.

As for `NC(=O)C1=CN([C@@H]2O[C@H](COP(=O)(O)OP(=O)(O)OC[C@H]3O[C@@H](n4cnc5c(N)ncnc54)[C@H](O)[C@@H]3O)[C@@H](O)[C@H]2O)C=CC1` [NADH], the Km in assay [1] (20 mM pyruvate) came out at 200 ± 40 µM.

Consider `CC(=O)C(=O)O` [pyruvate], for which the Km in assay [1] (1.5 mM NADH) came to 2300 ± 400 µM.

On to `O=P(O)(O)OC[C@H]1OC(O)(COP(=O)(O)O)[C@@H](O)[C@@H]1O` (stereo partly drawn) [FBP], for which, in assay [2], the EC50 stood at 76 ± 45 nM.

These data come from paper PMC4219987 (FEBS Open Bio, 2014).
